Test results from patent US7524853B2 (Solvay Pharmaceuticals B.V., priority 2003, dated 2009).

How the values were obtained:
Format in all cases: cell-based
[1] = molecular target: T1, 17β-hydroxysteroid dehydrogenase type 3 (17β-HSD type 3) (Homo sapiens, UniProt P37058); assay: Inhibition of 17β-HSD type 3 in MCF-7 cells stably expressing the isoenzyme (tritium labeled androstenedione conversion, HPLC); settings: MCF7, MCF-7 cells expressing 17β-HSD type 3, 2 nM tritium labeled androstenedione; for inhibition at 1 µM: 1 μM test compound, read-out: % Inhibition HSD3 1 μM; for inhibition at 10 µM: 10 μM test compound, read-out: % Inhibition HSD3 10 μM
T1 construct: expressed in transfected cells; host or cells: MCF-7
T1 sequence (P37058 1-310): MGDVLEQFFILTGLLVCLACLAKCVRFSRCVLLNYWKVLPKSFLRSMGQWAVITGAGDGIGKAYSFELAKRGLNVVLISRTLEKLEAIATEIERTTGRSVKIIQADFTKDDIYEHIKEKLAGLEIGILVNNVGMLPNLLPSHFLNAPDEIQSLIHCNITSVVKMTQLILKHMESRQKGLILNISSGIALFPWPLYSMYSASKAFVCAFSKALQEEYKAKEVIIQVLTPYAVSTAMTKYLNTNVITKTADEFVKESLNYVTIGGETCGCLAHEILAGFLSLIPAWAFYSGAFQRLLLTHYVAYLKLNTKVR
Source text: (§1) Biological Testing Materials and Methods 1. Inhibition of the 17β-hydroxysteroid dehydrocienase type 1, type 2 and type 3 enzyme
(§2) The compounds were screened in respect of 17β-HSD enzyme activity in vitro on established MCF-7 cell lines, each stably expressing one of the respective 17β-HSD isoenzymes. The interconversion of substrate by each isoenzyme and the 17β-HSD inhibiting activity of chemical compounds in these cell lines were detected by HPLC system.
(§3) Varying amounts of the test compounds were incubated in the growth medium of the 17β-HSD expressing cells together tritium labeled substrate (2 nM estrone for 17β-HSD type 1; 2 nM estradiol for 17β-HSD type 2; and 2 nM androstenedione for 17β-HSD type 3). The medium samples were removed after exact incubation time and the reaction is stopped by trichloroacetic acid (TCA). The samples were analyzed by HPLC-coupled flow scintillation analysis.
(§4) For each enzyme type, the HSD-inhibiting activity of an individual test compound was calculated by comparing the conversion of a control sample without any test compound (referred to as “Negative Control”) to the (reduced) conversion of the test sample containing the particular compound to be tested (referred to as “Test Sample”).
(§5) Two concentrations of each compound were used. The number of the compound refers to the numbers indicated in the Experimental Section.

[2] = molecular target: T2, 17β-hydroxysteroid dehydrogenase type 2 (17β-HSD type 2) (Homo sapiens, UniProt P37059); assay: Inhibition of 17β-HSD type 2 in MCF-7 cells stably expressing the isoenzyme (tritium labeled estradiol conversion, HPLC); settings: MCF7, MCF-7 cells expressing 17β-HSD type 2, 2 nM tritium labeled estradiol; for inhibition at 1 µM: 1 μM test compound, read-out: % Inhibition HSD2 1 μM; for inhibition at 10 µM: 10 μM test compound, read-out: % Inhibition HSD2 10 μM
T2 construct: expressed in transfected cells; host or cells: MCF-7
T2 sequence (P37059 1-387): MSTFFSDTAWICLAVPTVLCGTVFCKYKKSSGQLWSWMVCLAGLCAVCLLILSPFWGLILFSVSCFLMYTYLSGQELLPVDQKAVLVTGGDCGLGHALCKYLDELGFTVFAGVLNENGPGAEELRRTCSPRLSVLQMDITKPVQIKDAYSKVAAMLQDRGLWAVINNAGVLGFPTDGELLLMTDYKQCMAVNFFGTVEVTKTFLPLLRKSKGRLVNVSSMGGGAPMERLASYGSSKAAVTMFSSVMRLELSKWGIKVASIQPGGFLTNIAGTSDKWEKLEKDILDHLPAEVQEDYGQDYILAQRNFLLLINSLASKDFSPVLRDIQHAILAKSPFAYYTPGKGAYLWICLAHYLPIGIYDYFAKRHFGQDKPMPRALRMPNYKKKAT
Source text: as §1, §2, §3, §4, §5

[3] = molecular target: T3, 17β-hydroxysteroid dehydrogenase type 1 (17β-HSD type 1) (Homo sapiens, UniProt P14061); assay: Inhibition of 17β-HSD type 1 in MCF-7 cells stably expressing the isoenzyme (tritium labeled estrone conversion, HPLC); settings: MCF7, MCF-7 cells expressing 17β-HSD type 1, 2 nM tritium labeled estrone; for inhibition at 1 µM: 1 μM test compound, read-out: % Inhibition HSD1 1 μM; for inhibition at 10 µM: 10 μM test compound, read-out: % Inhibition HSD1 10 μM
T3 construct: expressed in transfected cells; host or cells: MCF-7
T3 sequence (P14061 1-328): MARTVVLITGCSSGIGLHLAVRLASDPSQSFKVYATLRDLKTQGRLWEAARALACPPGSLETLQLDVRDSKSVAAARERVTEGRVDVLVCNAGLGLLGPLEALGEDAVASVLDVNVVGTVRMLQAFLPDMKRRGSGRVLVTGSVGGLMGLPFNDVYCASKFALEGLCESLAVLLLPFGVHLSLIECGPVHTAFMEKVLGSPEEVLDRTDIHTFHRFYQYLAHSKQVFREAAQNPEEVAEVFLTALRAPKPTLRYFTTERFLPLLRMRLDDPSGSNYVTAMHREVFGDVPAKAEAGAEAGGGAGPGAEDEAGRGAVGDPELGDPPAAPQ
Source text: as §1, §2, §3, §4, §5

Row | Compound | inhibition at 1 µM [1] | inhibition at 10 µM [1] | inhibition at 1 µM [2] | inhibition at 10 µM [2] | inhibition at 1 µM [3] | inhibition at 10 µM [3]
1 | O=C1c2sc3nc(-c4cccs4)n(Cc4ccccc4)c(=O)c3c2CCC1Br (centres unmarked) | 21.8% | 25.6% | 32.8% | 48.4% | 28.5% | 23.2%
2 | CCCCn1c(-c2cccs2)nc2sc3c(c2c1=O)CCCC3 | 3.1% | 14.7% | 18.5% | 20.5% | 14.9% | 28.6%
3 | COc1cc(-c2nc3sc4c(c3c(=O)n2Cc2ccccc2)CCC(C=O)=C4Oc2ccccc2)cc(OC)c1OC [No. 4, 3-Benzyl-4-oxo-8-phenoxy-2-(3,4,5-trimethoxyphenyl)-3,4,5,6-tetrahydro-benzo[4,5]thieno[2,3-d]pyrimidine-7-carbaldehyde] | -7.2% | 6.5% | -4.3% | 20.1% | 20.1% | 30.7%
4 | COc1cc(-c2nc3sc4c(Oc5ccccc5)c(C=O)ccc4c3c(=O)n2Cc2ccccc2)cc(OC)c1OC [No. 5, 3-Benzyl-4-oxo-8-phenoxy-2-(3,4,5-trimethoxyphenyl)-3,4-dihydro-benzo[4,5]thieno[2,3-d]pyrimidine-7-carbaldehyde] | 9.4% | 9.1% | -0.9% | 17% | -1% | 26.1%
5 | CCSC1=C(C=O)CCc2c1sc1nc(-c3cc(OC)c(OC)c(OC)c3)n(Cc3ccccc3)c(=O)c21 [No. 6, 3-Benzyl-8-ethylsulfanyl-4-oxo-2-(3,4,5-trimethoxyphenyl)-3,4,5,6-tetrahydro-benzo[4,5]thieno[2,3-d]pyrimidine-7-carbaldehyde] | 2.1% | 47.1% | 3.8% | 29.7% | 31.8% | 44.2%
6 | COc1cc(-c2nc3sc4c(c3c(=O)n2Cc2ccccc2)CCC(C=O)=C4Sc2ccccc2)cc(OC)c1OC [No. 8, 3-Benzyl-4-oxo-8-phenylsulfanyl-2-(3,4,5-trimethoxyphenyl)-3,4,5,6-tetrahydro-benzo[4,5]thieno[2,3-d]pyrimidine-7-carbaldehyde] | 2.5% | 4.8% | 4.9% | 17.1% | 30.8% | 27.4%
7 | COc1cc(-c2nc3sc4c(Sc5ccccc5)c(C=O)ccc4c3c(=O)n2Cc2ccccc2)cc(OC)c1OC [No. 9, 3-Benzyl-4-oxo-8-phenylsulfanyl-2-(3,4,5-trimethoxyphenyl)-3,4-dihydro-benzo[4,5]thieno[2,3-d]pyrimidine-7-carbaldehyde] | 2.7% | 1.4% | -2.6% | -8.9% | 31.9% | 29.9%
8 | COc1ccc(-c2nc3sc4c(c3c(=O)n2Cc2ccccc2)CCCC4)cc1 [No. 12, 3-Benzyl-2-(p-methoxyphenyl)-5,6,7,8-tetrahydro-3H-benzo[4,5]thieno[2,3-d]pyrimidin-4-one] | 3.1% | 55.5% | 4.2% | 12.3% | 6.3% | 34.5%
9 | COc1cc(-c2nc3sc4ccccc4c3c(=O)n2Cc2ccccc2)c(Br)c(OC)c1OC [No. 51, 3-benzyl-2-(2-bromo-3,4,5-trimethoxyphenyl)-3H-benzo[4,5]thieno[2,3-d]pyrimidin-4-one] | – | – | 16.6% | 30.7% | 9.9% | 9.1%
10 | COc1cc(-c2nc3sc4c(O)cccc4c3c(=O)n2CC(C)C)cc(OC)c1OC [No. 151, 8-Hydroxy-3-isobutyl-2-(3,4,5-trimethoxyphenyl)-3H-benzo[4,5]thieno[2,3-d]pyrimidin-4-one] | – | – | 14.6% | 22.1% | 21.2% | 52.7%

The next lines start with the values.

Row | inhibition at 1 µM [1] | inhibition at 10 µM [1] | inhibition at 1 µM [2] | inhibition at 10 µM [2] | inhibition at 1 µM [3] | inhibition at 10 µM [3] | Compound
11 | -8.8% | 6.3% | 7.3% | 17.4% | 0.8% | 21.1% | COc1cc(-c2nc3sc4c(c3c(=O)n2Cc2ccccc2)CCCC4)cc(OC)c1OC [No. 1, 3-benzyl-2-(3,4,5-trimethoxyphenyl)-5,6,7,8-tetrahydro-3H-benzo[4,5]thieno[2,3-d]pyrimidin-4-one]
12 | 11.7% | 40.5% | 1.5% | 33.2% | 17.3% | 58.7% | COc1cc(-c2nc3sc4c(c3c(=O)n2Cc2ccccc2)CCCC4=O)cc(OC)c1OC [No. 2, 3-Benzyl-2-(3,4,5-trimethoxyphenyl)-6,7-dihydro-3H,5H-benzo[4,5]thieno[2,3-d]pyrimidine-4,8-dione]
13 | -19.4% | 29.1% | -3.2% | 7.8% | 3.2% | 38.4% | COc1cc(-c2nc3sc4c(c3c(=O)n2Cc2ccccc2)CCC(C=O)=C4Cl)cc(OC)c1OC [No. 3, 3-Benzyl-8-chloro-4-oxo-2-(3,4,5-trimethoxyphenyl)-3,4,5,6-tetrahydro-benzo[4,5]thieno[2,3-d]pyrimidine-7-carbaldehyde]
14 | -17.6% | 5.7% | 8.2% | 27% | 12.5% | 38.4% | CCOC1=C(C=O)CCc2c1sc1nc(-c3cc(OC)c(OC)c(OC)c3)n(Cc3ccccc3)c(=O)c21 [No. 7, 3-Benzyl-8-ethoxy-4-oxo-2-(3,4,5-trimethoxyphenyl)-3,4,5,6-tetrahydro-benzo[4,5]thieno[2,3-d]pyrimidine-7-carbaldehyde]
15 | -4.4% | 10.9% | 18.1% | 23.7% | 12.7% | 35.1% | COc1cc(-c2nc3sc4c(c3c(=O)n2-c2ccccc2)CCCC4)cc(OC)c1OC [No. 10, 3-Phenyl-2-(3,4,5-trimethoxyphenyl)-5,6,7,8-tetrahydro-3H-benzo[4,5]thieno[2,3-d]pyrimidin-4-one]
16 | -5.6% | 12.8% | -5.3% | 12.3% | 14.2% | 27.7% | COc1cc(-c2nc3sc4c(c3c(=O)n2-c2ccccc2)CCCC4=O)cc(OC)c1OC [No. 11, 3-Phenyl-2-(3,4,5-trimethoxyphenyl)-6,7-dihydro-3H,5H-benzo[4,5]thieno[2,3-d]pyrimidine-4,8-dione]
